Experimental data published in paper PMC9927415, “Tyrosine Kinase Inhibitors Display Potent Activity against Cryptosporidium parvum” (Microbiology Spectrum, 2022).

Tests used:
Assay in all cases: KINOMEscan competitive binding
PIM1 = target: T1, PIM1 (Homo sapiens, UniProt P11309); details: n=1, read-out: Percent inhibition, PIM1
T1 construct: purchased DiscoverX (KINOMEscan)

TNIK = target: T2, TNIK (Homo sapiens, UniProt Q9UKE5); details: n=1, read-out: Percent inhibition, TNIK
T2 construct: purchased DiscoverX (KINOMEscan)

STK36 = target: T3, STK36 (Homo sapiens, UniProt Q9NRP7); details: n=1, read-out: Percent inhibition, STK36
T3 construct: purchased DiscoverX (KINOMEscan)
T3 sequence (Q9NRP7 1-1315): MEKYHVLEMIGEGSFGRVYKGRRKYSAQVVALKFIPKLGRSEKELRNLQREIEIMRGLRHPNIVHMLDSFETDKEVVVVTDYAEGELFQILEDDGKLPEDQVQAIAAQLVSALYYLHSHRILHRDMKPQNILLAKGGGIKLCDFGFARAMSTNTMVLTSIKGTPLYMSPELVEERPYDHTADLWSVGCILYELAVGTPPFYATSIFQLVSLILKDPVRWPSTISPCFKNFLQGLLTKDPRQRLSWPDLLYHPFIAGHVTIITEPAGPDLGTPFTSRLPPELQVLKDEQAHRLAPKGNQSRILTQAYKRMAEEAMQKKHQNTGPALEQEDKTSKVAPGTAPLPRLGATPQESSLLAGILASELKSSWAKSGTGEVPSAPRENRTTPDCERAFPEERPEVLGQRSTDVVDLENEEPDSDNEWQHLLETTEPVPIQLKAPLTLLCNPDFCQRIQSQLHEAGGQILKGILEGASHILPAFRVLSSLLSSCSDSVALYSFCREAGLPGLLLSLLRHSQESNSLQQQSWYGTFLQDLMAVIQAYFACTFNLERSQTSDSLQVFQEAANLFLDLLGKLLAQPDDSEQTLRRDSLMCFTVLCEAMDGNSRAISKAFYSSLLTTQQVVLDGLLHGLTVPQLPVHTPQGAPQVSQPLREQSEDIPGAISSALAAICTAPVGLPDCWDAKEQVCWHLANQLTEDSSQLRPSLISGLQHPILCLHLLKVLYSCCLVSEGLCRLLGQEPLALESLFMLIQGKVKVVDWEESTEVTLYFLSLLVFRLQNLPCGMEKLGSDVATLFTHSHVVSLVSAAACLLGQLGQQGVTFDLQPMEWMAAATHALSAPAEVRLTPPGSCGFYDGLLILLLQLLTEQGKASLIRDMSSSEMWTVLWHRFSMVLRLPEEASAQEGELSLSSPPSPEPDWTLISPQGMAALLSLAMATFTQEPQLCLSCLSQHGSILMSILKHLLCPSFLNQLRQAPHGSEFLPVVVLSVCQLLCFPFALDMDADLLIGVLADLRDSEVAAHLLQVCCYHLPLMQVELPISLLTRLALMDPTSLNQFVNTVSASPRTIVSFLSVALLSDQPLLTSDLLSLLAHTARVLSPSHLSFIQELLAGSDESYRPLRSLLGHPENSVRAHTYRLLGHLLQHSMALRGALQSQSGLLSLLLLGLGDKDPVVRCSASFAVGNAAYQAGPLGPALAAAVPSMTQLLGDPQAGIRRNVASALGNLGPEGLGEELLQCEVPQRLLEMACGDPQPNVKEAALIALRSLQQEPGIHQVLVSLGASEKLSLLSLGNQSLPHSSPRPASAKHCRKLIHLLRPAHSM

PHKG2 = target: T4, PHKG2 (Homo sapiens, UniProt P15735); details: n=1, read-out: Percent inhibition, PHKG2
T4 construct: purchased DiscoverX (KINOMEscan)
T4 sequence (P15735 1-406): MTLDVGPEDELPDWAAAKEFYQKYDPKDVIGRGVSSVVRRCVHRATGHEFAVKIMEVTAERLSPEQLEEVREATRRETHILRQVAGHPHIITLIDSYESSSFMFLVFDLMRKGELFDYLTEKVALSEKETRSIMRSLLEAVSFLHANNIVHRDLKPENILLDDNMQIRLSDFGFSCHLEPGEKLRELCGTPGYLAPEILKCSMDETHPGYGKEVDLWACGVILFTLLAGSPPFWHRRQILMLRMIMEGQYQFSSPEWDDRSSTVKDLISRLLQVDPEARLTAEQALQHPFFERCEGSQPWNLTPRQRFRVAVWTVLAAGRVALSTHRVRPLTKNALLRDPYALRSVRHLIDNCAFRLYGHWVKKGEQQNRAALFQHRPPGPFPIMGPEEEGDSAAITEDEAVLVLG

TNK2 = target: T5, TNK2 (Homo sapiens, UniProt Q07912); details: n=1, read-out: Percent inhibition, TNK2
T5 construct: purchased DiscoverX (KINOMEscan)

JAK kinase domains = target: T6, JAK kinase domains (Homo sapiens, UniProt O60674); details: 10 µM, n=1; kinase JAK2(Kin.Dom.2); read-out: Percent inhibition JAK2(Kin.Dom.2)
T6 construct: purchased DiscoverX (KINOMEscan)
From the text: The kinases were expressed as fusions to T7 bacteriophage. This is a sensitive, competitive binding assay where test compounds were used to displace immobilized ATP-site binding probe ligands from kinases of interest. The amount of kinase that remained bound to the immobilized probe ligands on the solid support was quantified. Percentage inhibition data were was plotted on kinome trees using the web-based tool KinMap (http://www.kinhub.org/kinmap) ([60]).

PRKG2 = target: T7, PRKG2 (Homo sapiens, UniProt Q13237); details: n=1, read-out: Percent inhibition, PRKG2
T7 construct: purchased DiscoverX (KINOMEscan)
T7 sequence (Q13237 1-762): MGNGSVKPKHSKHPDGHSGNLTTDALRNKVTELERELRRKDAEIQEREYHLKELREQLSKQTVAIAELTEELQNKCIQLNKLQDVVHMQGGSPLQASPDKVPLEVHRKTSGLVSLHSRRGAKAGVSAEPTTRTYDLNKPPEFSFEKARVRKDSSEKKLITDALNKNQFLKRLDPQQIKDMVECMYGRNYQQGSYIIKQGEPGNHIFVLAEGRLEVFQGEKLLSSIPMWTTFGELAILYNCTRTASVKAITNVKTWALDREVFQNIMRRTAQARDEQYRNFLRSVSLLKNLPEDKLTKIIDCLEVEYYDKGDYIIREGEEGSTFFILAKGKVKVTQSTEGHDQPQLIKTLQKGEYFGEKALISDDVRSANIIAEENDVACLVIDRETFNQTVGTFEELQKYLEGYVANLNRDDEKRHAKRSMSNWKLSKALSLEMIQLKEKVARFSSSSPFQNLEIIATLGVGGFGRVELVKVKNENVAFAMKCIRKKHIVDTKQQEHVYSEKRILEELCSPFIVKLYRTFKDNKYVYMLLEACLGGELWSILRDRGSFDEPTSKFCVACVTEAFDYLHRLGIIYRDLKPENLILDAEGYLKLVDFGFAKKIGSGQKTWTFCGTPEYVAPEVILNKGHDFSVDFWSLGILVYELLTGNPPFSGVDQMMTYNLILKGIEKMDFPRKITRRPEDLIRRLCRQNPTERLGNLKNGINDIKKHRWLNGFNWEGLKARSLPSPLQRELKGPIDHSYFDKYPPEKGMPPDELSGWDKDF

Structure (SMILES) | inhibition at 10 µM (PIM1) [%] | inhibition at 10 µM (TNIK) [%] | inhibition at 10 µM (STK36) [%] | inhibition at 10 µM (PHKG2) [%] | inhibition at 10 µM (TNK2) [%] | inhibition at 10 µM (JAK kinase domains) [%] | inhibition at 10 µM (PRKG2) [%]
CN1CCN(c2ccc(Nc3nccc(-c4cnn5ncccc45)n3)cc2C#N)CC1 [Compound 1] | 99.8 | 98.9 | 100 | 100 | 73.2 | 86.8 | 0
COc1ccc(Nc2nccc(-c3cnn4ncccc34)n2)cc1 [Compound 2] | 0 | 93.4 | 98.8 | 97.1 | 78.1 | 89.7 | 0
Cc1ccc(O)cc1Nc1ccnc(Nc2cccc(C(N)=O)c2)n1 [Compound 3] | 0 | 99.3 | 98.4 | 0 | 98.8 | 80.6 | 0
Cc1ccc(O)cc1N(C)c1ccnc(Nc2cccc(S(N)(=O)=O)c2)n1 [Compound 4] | 0 | 99.6 | 99.3 | 0 | 99.8 | 90.7 | 0
Fc1cccc(COc2ccc(Nc3ncnc4c3CN(CCN3CCOCC3)CC4)cc2Cl)c1 [Compound 6] | 0 | 0 | 0 | 0 | 0 | 0 | 0
COc1cc(Nc2nccc(-c3sc(N)nc3-c3cccc(NC(=O)c4c(F)cccc4F)c3)n2)cc(OC)c1OC [Compound 7] | 0 | 99.9 | 100 | 0 | 100 | 0 | 0
C[C@@H](Oc1cc(-c2cnc3ccccn23)sc1C(N)=O)c1ccccc1Cl [Compound 8] | 76.4 | 0 | 0 | 74.6 | 0 | 70.2 | 0
c1ccc(COc2cccc(-c3ccnc4[nH]ccc34)c2)cc1 [Compound 9] | 0 | 0 | 0 | 0 | 0 | 0 | 0
Clc1ccc(Nc2ncc(-c3ccccc3)s2)cc1 [Compound 10] | 0 | 0 | 0 | 0 | 0 | 0 | 0
Nc1ncc2c(-c3ccncc3)c[nH]c2n1 [Compound 11] | 0 | 93.7 | 0 | 0 | 0 | 0 | 0
